Columns and labels:
[1] = Inhibition of SOS1/KRAS G13D mutant protein-protein interaction in human DLD-1 cells assessed as ERK1/2 phosphorylation measured after 1 hr by homogeneous time-resolved fluorescence (HTRF) method; type: cell-based; conditions: DLD-1, 1 h
SOS1-KRAS = SOS1-KRAS (Homo sapiens, UniProt Q07889); test: Inhibition of human recombinant SOS1 (residue 564-1049)/KRAS G12C mutant protein-protein interaction at incubated for 25 degC for 60 mins by homogeneous time-resolved fluorescence (HTRF) method
Chain of SOS1-KRAS (Q07889 whole entry, looked up, stated change not applied): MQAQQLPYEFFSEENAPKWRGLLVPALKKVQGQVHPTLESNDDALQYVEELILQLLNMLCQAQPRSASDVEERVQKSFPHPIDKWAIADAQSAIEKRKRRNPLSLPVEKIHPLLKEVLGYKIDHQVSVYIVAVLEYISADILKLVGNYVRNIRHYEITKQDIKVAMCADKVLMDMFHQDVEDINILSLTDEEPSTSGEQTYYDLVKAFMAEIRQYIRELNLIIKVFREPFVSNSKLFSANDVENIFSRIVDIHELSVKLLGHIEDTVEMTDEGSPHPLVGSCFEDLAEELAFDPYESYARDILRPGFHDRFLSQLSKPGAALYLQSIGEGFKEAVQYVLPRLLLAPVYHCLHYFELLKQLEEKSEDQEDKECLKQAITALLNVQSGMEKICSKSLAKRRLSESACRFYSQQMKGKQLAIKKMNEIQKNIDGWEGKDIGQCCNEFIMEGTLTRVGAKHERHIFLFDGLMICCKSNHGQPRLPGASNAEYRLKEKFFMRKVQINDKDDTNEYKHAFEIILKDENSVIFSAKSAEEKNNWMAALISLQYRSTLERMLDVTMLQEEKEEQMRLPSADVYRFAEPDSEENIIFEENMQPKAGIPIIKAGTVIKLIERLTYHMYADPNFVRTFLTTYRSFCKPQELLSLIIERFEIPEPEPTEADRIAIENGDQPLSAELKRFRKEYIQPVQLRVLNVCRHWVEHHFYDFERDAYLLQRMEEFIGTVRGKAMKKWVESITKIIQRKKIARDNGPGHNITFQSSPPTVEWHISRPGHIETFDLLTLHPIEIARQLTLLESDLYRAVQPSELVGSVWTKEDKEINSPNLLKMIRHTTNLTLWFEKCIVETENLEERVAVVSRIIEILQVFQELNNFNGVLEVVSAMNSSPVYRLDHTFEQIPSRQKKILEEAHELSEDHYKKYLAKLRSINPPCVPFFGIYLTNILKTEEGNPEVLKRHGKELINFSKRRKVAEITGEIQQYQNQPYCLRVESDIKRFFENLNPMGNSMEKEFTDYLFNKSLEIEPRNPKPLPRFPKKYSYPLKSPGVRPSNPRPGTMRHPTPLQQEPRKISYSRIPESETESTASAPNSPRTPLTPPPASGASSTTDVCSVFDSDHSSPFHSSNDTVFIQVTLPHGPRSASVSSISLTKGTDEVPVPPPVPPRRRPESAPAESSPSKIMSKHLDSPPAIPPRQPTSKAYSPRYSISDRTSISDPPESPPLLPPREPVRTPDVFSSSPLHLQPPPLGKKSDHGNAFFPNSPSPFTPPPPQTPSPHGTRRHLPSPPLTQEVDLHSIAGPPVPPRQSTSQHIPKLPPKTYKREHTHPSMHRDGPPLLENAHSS

[2] = Tmax in ICR mouse at 20 mg/kg, po by LC-MS/MS analysis; type: ADME, organism-based; conditions: in vivo
[3] = Elimination rate constant in ICR mouse at 20 mg/kg, po by LC-MS/MS analysis; type: ADME, organism-based; conditions: in vivo; for k el: ICR; for Kel: po, 20 mg/kg
[4] = Cmax in ICR mouse at 20 mg/kg, po by LC-MS/MS analysis; type: ADME, organism-based; parameters: dose 20 mg/kg, route po; conditions: in vivo
[5] = MRT in ICR mouse at 20 mg/kg, po by LC-MS/MS analysis; type: ADME, organism-based; conditions: in vivo
[6] = AUC in ICR mouse at 20 mg/kg, po by LC-MS/MS analysis; type: ADME, organism-based; parameters: dose 20 mg/kg, route po; conditions: in vivo
[7] = Half life in ICR mouse at 20 mg/kg, po by LC-MS/MS analysis; type: ADME, organism-based; conditions: in vivo; for half-life: ICR; for t1/2: po, 20 mg/kg

Cc1nc(N[C@H](C)c2cc(N)cc(C(F)(F)F)c2)c2cc3c(cc2n1)OC[C@H]1CN(C)CCN31
IC50 [1]: 11 nM
IC50 (SOS1-KRAS): 7.3 nM

Cc1nc(N[C@H](C)c2cccc(C(F)F)c2F)c2cc3c(cc2n1)OC[C@H]1CN(S(C)(=O)=O)CCN31
IC50 [1]: 79 nM

Cc1nc(N[C@H](C)c2cccc(C(F)F)c2F)c2cc3c(cc2n1)OC[C@H]1CN(C(=O)C2(F)CC2)CCN31
Tmax [2]: 1.5 h
k el [3]: 8.33e-05 s⁻¹
Cmax [4]: 582 ng/mL
IC50 [1]: 1.7 nM
MRT [5]: 2.59 h
AUC [6]: 2100 ng·h/mL
half-life [7]: 2.34 h

CC(=O)N1CCOc2cc3nc(C)nc(N[C@H](C)c4cc(N)cc(C(F)(F)F)c4)c3cc21
IC50 [1]: 780 nM
IC50 (SOS1-KRAS): 122 nM

Cc1nc(N[C@H](C)c2cccc(C(F)F)c2F)c2cc3c(cc2n1)OC[C@H]1CN(C(=O)N2CCN(C)CC2)CCN31
IC50 [1]: 99 nM

CNC(=O)N1CCN2c3cc4c(N[C@H](C)c5cccc(C(F)F)c5F)nc(C)nc4cc3OC[C@H]2C1
Tmax [2]: 8 h
Kel [3]: 0.26 h⁻¹
Cmax [4]: 751 ng/mL
IC50 [1]: 15 nM
MRT [5]: 5.62 h
AUC [6]: 2830 ng·h/mL
t1/2 [7]: 14.5 h

COCC1(C(=O)N2CCN3c4cc5c(N[C@H](C)c6cccc(C(F)F)c6F)nc(C)nc5cc4OC[C@H]3C2)CC1
Tmax [2]: 0.25 h
k el [3]: 8.33e-05 s⁻¹
Cmax [4]: 161 ng/mL
IC50 [1]: 0.9 nM
MRT [5]: 2.62 h
AUC [6]: 398 ng·h/mL
half-life [7]: 2.28 h

COC(=O)N1CCN2c3cc4c(N[C@H](C)c5cccc(C(F)F)c5F)nc(C)nc4cc3OC[C@H]2C1
IC50 [1]: 22 nM

CC(=O)N1CCN2c3cc4c(N[C@H](C)c5cc(N)cc(C(F)(F)F)c5)nc(C)nc4cc3OC[C@@H]2C1
IC50 [1]: 48 nM
IC50 (SOS1-KRAS): 12.8 nM

Cc1nc(N[C@H](C)c2cccc(C(F)F)c2F)c2cc3c(cc2n1)OC[C@H]1CN(C(=O)C2C(C)(C)C2(C)C)CCN31
IC50 [1]: 9 nM

Cc1nc(N[C@H](C)c2cccc(C(F)F)c2F)c2cc3c(cc2n1)OC[C@H]1CN(C)CCN31
IC50 [1]: 86 nM

Cc1nc(N[C@H](C)c2cccc(C(F)F)c2F)c2cc3c(cc2n1)OC[C@H]1CN(C(=O)[C@@H]2CCOC2)CCN31
Tmax [2]: 8 h
k el [3]: 8.33e-06 s⁻¹
Cmax [4]: 47 ng/mL
IC50 [1]: 21 nM
MRT [5]: 9.65 h
AUC [6]: 780 ng·h/mL
half-life [7]: 18 h

Cc1nc(N[C@H](C)c2cc(N)cc(C(F)(F)F)c2)c2cc3c(cc2n1)OCCO3
IC50 [1]: 690 nM
IC50 (SOS1-KRAS): 904 nM

COCC(=O)N1CCN2c3cc4c(N[C@H](C)c5cccc(C(F)F)c5F)nc(C)nc4cc3OC[C@H]2C1
Tmax [2]: 0.83 h
k el [3]: 3.06e-05 s⁻¹
Cmax [4]: 180 ng/mL
IC50 [1]: 10 nM
MRT [5]: 3.43 h
AUC [6]: 860 ng·h/mL
half-life [7]: 5.86 h

Cc1nc(N[C@H](C)c2cccc(C(F)F)c2F)c2cc3c(cc2n1)OC[C@H]1CN(C(=O)C2CCN(C)CC2)CCN31
IC50 [1]: 98 nM

Cc1nc(N[C@H](C)c2cc(N)cc(C(F)(F)F)c2)c2cc3c(cc2n1)OC[C@H]1CN(C2CCOCC2)CCN31
IC50 [1]: 48 nM
IC50 (SOS1-KRAS): 18 nM

Cc1nc(N[C@H](C)c2cccc(C(F)F)c2F)c2cc3c(cc2n1)OC[C@H]1CN(C2CN(C)C2)CCN31
IC50 [1]: 166 nM

Cc1nc(N[C@H](C)c2cccc(C(F)F)c2F)c2cc3c(cc2n1)OC[C@H]1CN(C(=O)N(C)C)CCN31
Tmax [2]: 3 h
k el [3]: 2.5e-05 s⁻¹
Cmax [4]: 621 ng/mL
IC50 [1]: 2.9 nM
MRT [5]: 4.2 h
AUC [6]: 3980 ng·h/mL
half-life [7]: 12.3 h

Cc1nc(N[C@H](C)c2cccc(C(F)F)c2F)c2cc3c(cc2n1)OC[C@H]1CN(C(=O)C2(C)CC2)CCN31
IC50 [1]: > 1000 nM

Cc1nc(N[C@H](C)c2cccc(C(F)F)c2F)c2cc3c(cc2n1)OC[C@H]1CN(C(=O)C2COC2)CCN31
Tmax [2]: 3 h
k el [3]: 5e-05 s⁻¹
Cmax [4]: 260 ng/mL
IC50 [1]: 25 nM
MRT [5]: 4.58 h
AUC [6]: 2010 ng·h/mL
half-life [7]: 3.73 h

CCNC(=O)N1CCN2c3cc4c(N[C@H](C)c5cccc(C(F)F)c5F)nc(C)nc4cc3OC[C@H]2C1
IC50 [1]: 32 nM

Cc1nc(N[C@H](C)c2cccc(C(F)F)c2F)c2cc3c(cc2n1)OC[C@H]1CN(C2COC2)CCN31
IC50 [1]: 96 nM

COCCN1CCN2c3cc4c(N[C@H](C)c5cccc(C(F)F)c5F)nc(C)nc4cc3OC[C@H]2C1
IC50 [1]: 97 nM

Cc1nc(N[C@H](C)c2cccc(C(F)F)c2F)c2cc3c(cc2n1)OC[C@H]1CN(C(C)C)CCN31
IC50 [1]: 168 nM

Cc1nc(N[C@H](C)c2cccc(C(F)F)c2F)c2cc3c(cc2n1)OC[C@H]1CN(C(=O)C2CCO2)CCN31 (some centres undefined)
Tmax [2]: 5.67 h
Kel [3]: 0.13 h⁻¹
Cmax [4]: 97.1 ng/mL
IC50 [1]: 16 nM
MRT [5]: 4.55 h
AUC [6]: 534 ng·h/mL
t1/2 [7]: 14.3 h

Cc1nc(N[C@H](C)c2cccc(C(F)F)c2F)c2cc3c(cc2n1)OC[C@H]1CN(C(=O)c2ccn[nH]2)CCN31
IC50 [1]: 376 nM

Cc1nc(N[C@H](C)c2cccc(C(F)F)c2F)c2cc3c(cc2n1)OC[C@H]1CN(CC(=O)N(C)C)CCN31
IC50 [1]: 295 nM

Cc1nc(N[C@H](C)c2cccc(C(F)F)c2F)c2cc3c(cc2n1)OC[C@H]1CN(C(=O)[C@@H]2CCCN2C)CCN31
IC50 [1]: 104 nM

Cc1nc(N[C@H](C)c2cccc(C(F)F)c2F)c2cc3c(cc2n1)OC[C@H]1CN(C(=O)C2(C#N)CC2)CCN31
Tmax [2]: 1.33 h
k el [3]: 5e-05 s⁻¹
Cmax [4]: 600 ng/mL
IC50 [1]: 14 nM
MRT [5]: 4.43 h
AUC [6]: 4460 ng·h/mL
half-life [7]: 3.87 h

Cc1nc(N[C@H](C)c2cccc(C(F)F)c2F)c2cc3c(cc2n1)OC[C@H]1CN(C(=O)[C@@H]2C[C@@H]2F)CCN31
IC50 [1]: 22 nM

Cc1nc(N[C@H](C)c2cccc(C(F)F)c2F)c2cc3c(cc2n1)OC[C@H]1CN(C(=O)C2CC2)CCN31
IC50 [1]: 367 nM

Cc1nc(N[C@H](C)c2cc(N)cc(C(F)(F)F)c2)c2cc3c(cc2n1)OC[C@H]1CN(C2COC2)CCN31
IC50 [1]: 45 nM
IC50 (SOS1-KRAS): 15.6 nM

CC(=O)N1CCN2c3cc4c(N[C@H](C)c5cccc(C(F)F)c5F)nc(C)nc4cc3OCC2C1 (some centres undefined)
IC50 [1]: 19 nM
IC50 (SOS1-KRAS): 8.8 nM

Cc1nc(N[C@H](C)c2cccc(C(F)F)c2F)c2cc3c(cc2n1)OC[C@H]1CN(C(=O)C2CC2(F)F)CCN31 (some centres undefined)
IC50 [1]: 26 nM

COCCC(=O)N1CCN2c3cc4c(N[C@H](C)c5cccc(C(F)F)c5F)nc(C)nc4cc3OC[C@H]2C1
Tmax [2]: 2.92 h
k el [3]: 5e-05 s⁻¹
Cmax [4]: 674 ng/mL
IC50 [1]: 9.5 nM
MRT [5]: 3.45 h
AUC [6]: 3340 ng·h/mL
half-life [7]: 3.85 h

CC(=O)N1CCN2c3cc4c(N[C@H](C)c5cccc(C(F)F)c5F)nc(C)nc4cc3OC[C@@H]2C1
IC50 [1]: 38 nM
IC50 (SOS1-KRAS): 13.8 nM

Cc1nc(N[C@H](C)c2cccc(C(F)F)c2F)c2cc3c(cc2n1)OC[C@H]1CN(C(=O)C2CCOCC2)CCN31
Tmax [2]: 0.91 h
k el [3]: 9.44e-05 s⁻¹
Cmax [4]: 241 ng/mL
IC50 [1]: 18 nM
MRT [5]: 2.46 h
AUC [6]: 646 ng·h/mL
half-life [7]: 2.13 h

Cc1nc(N[C@H](C)c2cccc(C(F)F)c2F)c2cc3c(cc2n1)OC[C@H]1CN(C(=O)c2ccnn2C)CCN31
IC50 [1]: 691 nM

Cc1nc(N[C@H](C)c2cc(N)cc(C(F)(F)F)c2)c2cc3c(cc2n1)OC[C@H]1COCCN31
IC50 [1]: 38 nM
IC50 (SOS1-KRAS): 6 nM

Cc1nc(N[C@H](C)c2cccc(C(F)F)c2F)c2cc3c(cc2n1)OC[C@H]1CN(c2ncc(F)cn2)CCN31
IC50 [1]: 99 nM

Cc1nc(N[C@H](C)c2cccc(C(F)F)c2F)c2cc3c(cc2n1)OC[C@H]1CN(C(=O)C(C)(C)C)CCN31
IC50 [1]: 25 nM

Cc1nc(N[C@H](C)c2cccc(C(F)F)c2F)c2cc3c(cc2n1)OC[C@H]1CN(C(=O)N2CCOCC2)CCN31
Tmax [2]: 0.5 h
k el [3]: 0.0001 s⁻¹
Cmax [4]: 356 ng/mL
IC50 [1]: 9.7 nM
MRT [5]: 2.14 h
AUC [6]: 872 ng·h/mL
half-life [7]: 1.78 h

Cc1nc(N[C@H](C)c2cccc(C(F)F)c2F)c2cc3c(cc2n1)OC[C@H]1CN(C2CCOCC2)CCN31
IC50 [1]: 57 nM

— ChEMBL document CHEMBL5236589, “Design and Structural Optimization of Orally Bioavailable SOS1 Inhibitors for the Treatment of KRAS-Driven Carcinoma” (J Med Chem, 2022)
